pKi: −log10 of the molar value. “And” between values parts separate entries of the source, which are not always exact repeats. Equal entries are not always repeated.
The molecules below were run against Cannabinoid receptor 1 (Rattus norvegicus, UniProt P20272).
Sequence of Cannabinoid receptor 1 (P20272 whole entry): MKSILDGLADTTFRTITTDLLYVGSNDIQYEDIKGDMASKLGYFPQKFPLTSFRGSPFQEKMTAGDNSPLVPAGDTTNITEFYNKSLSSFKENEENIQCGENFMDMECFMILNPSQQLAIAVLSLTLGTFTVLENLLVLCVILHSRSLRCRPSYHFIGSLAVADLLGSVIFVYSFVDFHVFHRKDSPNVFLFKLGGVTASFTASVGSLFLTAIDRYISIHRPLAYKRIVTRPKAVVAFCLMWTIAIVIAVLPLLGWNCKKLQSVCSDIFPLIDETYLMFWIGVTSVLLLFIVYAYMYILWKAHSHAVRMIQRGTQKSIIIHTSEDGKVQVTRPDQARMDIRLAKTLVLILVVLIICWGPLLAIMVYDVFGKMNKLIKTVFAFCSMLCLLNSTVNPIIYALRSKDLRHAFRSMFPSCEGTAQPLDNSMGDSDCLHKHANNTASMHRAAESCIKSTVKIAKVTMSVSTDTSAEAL

Compound	pKi
CCCCC[C@@H](C)[C@H](C)c1cc(O)c2c(c1)OC(C)(C)[C@@H]1CC=C(C)C[C@@H]21	8.80
CCCCCCC(C)(C)c1cc(O)c2c(c1)OC(C)(C)[C@@H]1CCC(CO)=CC21 (stereo partly specified) [(3-(1,1-Dimethyl-heptyl)-9-hydroxymethyl-6,6-dimethyl-6a,7,8,10a-tetrahydro-6H-benzo[c]chromen-1-ol (HU210)]	6.90
CCCCCCC(C)(C)c1cc(O)c2c(c1)OC(C)(C)[C@@H]1CCC(=O)C[C@@H]21 [(6aR,10aR)-3-(1,1-Dimethyl-heptyl)-1-hydroxy-6,6-dimethyl-6,6a,7,8,10,10a-hexahydro-benzo[c]chromen-9-one]	7.65
CCCC(C)(C)c1ccc([C@H]2CCC[C@@H](O)C2)c(O)c1 [Bicyclic analogs III]	5.42
CCC(C)(C)c1ccc([C@H]2CCC[C@@H](O)C2)c(O)c1 [Bicyclic analogs II]	< 5.00
CCCCC(C)(C)c1ccc([C@H]2CCC[C@@H](O)C2)c(O)c1 [Bicyclic analogs IV]	8.02
CCCCCCCCCC(C)(C)c1ccc([C@H]2CCC[C@@H](O)C2)c(O)c1 [Bicyclic analogs IX]	6.79
CC(C)(C)c1ccc([C@H]2CCC[C@@H](O)C2)c(O)c1 [Bicyclic analogs I]	< 5.00
CCCCCCCCC(C)(C)c1ccc([C@H]2CCC[C@@H](O)C2)c(O)c1 [Bicyclic analogs VIII]	7.55
CCCCCCCC(C)(C)c1ccc([C@H]2CCC[C@@H](O)C2)c(O)c1 [Bicyclic analogs VII]	8.33
CCCCCC(C)(C)c1ccc([C@H]2CCC[C@@H](O)C2)c(O)c1 [Bicyclic analogs V]	6.90
OCCC[C@@H]1CC[C@@H](O)C[C@H]1c1ccccc1O [Bicyclic analogs XIII]	< 5.00
CCCCCCC(C)(C)c1ccc([C@@H]2C[C@H](O)CC[C@H]2C)c(O)c1 [Bicyclic analogs XI]	8.21 and 8.11
CCCCCCC(C)(C)c1ccc([C@@H]2C[C@H](O)CC[C@H]2CCCCO)c(O)c1 [Bicyclic analogs XVI]	8.81
CCCCCCCCCCC(C)(C)c1ccc([C@H]2CCC[C@@H](O)C2)c(O)c1 [Bicyclic analogs X]	6.42
CCCCCCC(C)(C)c1ccc([C@H]2CCC[C@@H](O)C2)c(O)c1 [CP-47,497]	6.13
CCCCCC(C)C(C)c1cc(O)c2c(c1)OC(C)(C)C1=C2CC(C)CC1 (stereo unspecified) [DMHP, 1', 2']	8.81
CCCCCc1cc(O)c2c(c1)OC(C)(C)C1CCC(C)(O)CC21 (stereo unspecified) [NSC_169742]	6.91 and 6.77
C=C(C)C1CCC(C)=CC1c1c(O)cc(O)cc1CCCCC (stereo unspecified) [NSC_3060519]	< 5.00
CCCCCc1cc(OCCCN)c2c(c1)OC(C)(C)[C@@H]1CCC(C)=C[C@@H]21 [THC, 1-O-(3-Aminopropyl)]	< 5.00
CCCCCc1cc(OCCCCN)c2c(c1)OC(C)(C)[C@@H]1CCC(C)=C[C@@H]21 [THC, 1-O-(4-Aminobutyl)]	< 5.00

Compound	pKi
CCCCCc1cc(OCCCCCCN)c2c(c1)OC(C)(C)[C@@H]1CCC(C)=C[C@@H]21 [THC, 1-O-(6-Aminohexyl)]	5.76
CCCCCc1cc(OC(N)=O)c2c(c1)OC(C)(C)[C@@H]1CCC(C)=C[C@@H]21 [THC, 1-O-Carbamoyl]	< 5.00
C=C1CC[C@@H]2[C@@H](C1)c1c(OC)cc(CCC(CC)CCC)cc1OC2(C)C (stereo partly specified) [THC, 1-O-Methyl-3-(norpentyl)-3-propyl]	< 5.00
CCCCCCC(C)(C)c1cc(OCc2ccc(-c3ccccc3)cc2)c2c(c1)OC(C)(C)[C@@H]1CCC(CO)=C[C@@H]21 [THC, 1-O-biphenylmethyl-delta 8]	< 5.00
C=C1CC[C@@H]2[C@@H](C1)c1c(OC)cc(CCCCC)cc1OC2(C)C [THC, 1-O-methyl-delta 9,11]	6.08
CCCCCc1cc(OC)c2c(c1)OC(C)(C)[C@@H]1CCC(C)=C[C@@H]21 [THC, 1-O-methyl-delta 9]	< 5.00
C=C1CC[C@@H]2[C@@H](C1)c1c(O)cc(CCC(CC)CCC)cc1OC2(C)C (stereo partly specified) [THC, 3-(Norpentyl)-3-propyl]	6.01
CC1=C[C@H]2c3c(O)cc(CCCCCBr)cc3OC(C)(C)[C@@H]2CC1 [THC, 5'-Br]	8.12
CC1=C[C@H]2c3c(O)cc(CCCCC(F)(F)F)cc3OC(C)(C)[C@@H]2CC1 [THC, 5'-F3]	7.70
CC1=C[C@H]2c3c(O)cc(CCCCCF)cc3OC(C)(C)[C@@H]2CC1 [THC, 5'-F]	7.24
CC1=C[C@H]2c3c(O)cc(CCCCCI)cc3OC(C)(C)[C@@H]2CC1 [THC, 5'-I]	8.11
CC1=C[C@H]2c3c(O)cc(CCCCCO)cc3OC(C)(C)[C@@H]2CC1 [THC, 5'-OH]	7.06
CCCCCc1cc(O)c2c(c1)OC(C)(C)[C@@H]1C[C@@H](O)C(C)=C[C@@H]21 [THC, 8 beta-OH]	6.09
CCCCCc1cc(O)c2c(c1)OC(C)(C)[C@@H]1CCC(C(=O)O)=C[C@@H]21 [THC, 9-Nor-9-carboxy-delta 9]	< 5.00
CCCCCc1cc(OC)c2c(c1)OC(C)(C)[C@@H]1CCC(CF)=C[C@@H]21 [THC, 11-F]	6.97
CC1(C)Oc2cc(CCCCC[N+](C)(C)C)cc(O)c2[C@@H]2C=C(CO)CC[C@H]21 [THC, 11-OH-5'-TMA]	5.68
CCCCCc1cc(O)c2c(c1)OC(C)(C)[C@@H]1CCC(CO)=C[C@@H]21 [THC, 11-OH-delta 9]	7.42
CCCCCc1cc(OC(C)C)c2c(c1)OC(C)(C)[C@@H]1CCC(C)=C[C@@H]21 [THC, O, 2-propano]	< 5.00
CCCCCc1cc(O)c2c(c1)OC(C)(C)[C@@H]1CCC(C)=C(CO)[C@@H]21 [THC, O, 10-Methano]	< 5.00
CCCCCCC(C)(C)c1cc(O)c2c(c1)OC(C)(C)[C@H]1CCC(CO)=C[C@H]21 [THC-DMH, (-)-11-OH]	9.14
